Nine compounds from patent publication US20250214964A1, “COMPOUNDS DERIVED FROM 4-AMINO-N-(4-AMINOPHENYL) BENZAMIDE AND ANALOGUES AND USE THEREOF” (priority 2022, published 2025) can be followed below.

Molecules are shown by their SMILES. Bounds are passed on as bounds.

For series [1], the system named is intracellular amastigotes of L. donovani (strain MHOM/ET/67/HU3). Briefly: L. donovani intracellular amastigotes in THP-1-derived macrophages, resazurin method. The class given is cell-based. Conditions: for SI selectivity index (EC50 THP-1/EC50 parasite (amastigote form)): THP-1 vs L. donovani amastigotes. The procedure: (§1) Furthermore, their cytotoxicity on human THP-1 cells was evaluated and the selectivity index (SI) of each compound was calculated (Table 1).
Background: Resazurin is reduced to fluorescent resorufin, in cell work by metabolically active cells.

Series [2] relates to HEK cells. Briefly: Cytotoxicity on HEK cells. Conditions: read-out: CC50 HEK; concentration that causes 50% cell death.
The subject of series [3] is T. b. brucei drug-resistant strain B48. The class given is cell-based. Conditions: for RF resistance factor (EC50 T. b. B48/EC50 T. b. s427): value in parentheses.
The test system of series [4] is T. b. brucei wild strain s427. Briefly: T. b. brucei s427 bloodstream trypomastigotes, Alamar blue. The class given is cell-based.
Series [5] in a line: Cytotoxicity on L929 cells. The class given is cell-based. The following applies: mouse.
Series [6] can be described thus: Cytotoxicity on THP-1 cells. Conditions: human. The procedure: as §1
Series [7] concerns epimastigotes of T. cruzi (CL strain lacZ). Briefly: microbe, parasite or virus in culture. The series is classed as cell-based. The following applies: Trypanosoma cruzi.
Series [8] can be described thus: Microsomal stability, mouse liver microsomes. The following applies: reaction time up to 120 min. (Microsomes from liver hold many membrane-bound enzymes, among them those of drug oxidation.)
The nature of series [9]: Microsomal stability, human liver microsomes, phase I. The following applies: reaction time up to 120 min.

As for `C[C@@H]1[C@H](O)[C@@H](C)/C=C/C=C/C=C/C=C/C=C/C=C/C=C/[C@H](O[C@@H]2O[C@H](C)[C@@H](O)[C@H](N)[C@@H]2O)C[C@@H]2O[C@](O)(C[C@@H](O)C[C@@H](O)[C@H](O)CC[C@@H](O)C[C@@H](O)CC(=O)O[C@H]1C)C[C@H](O)[C@H]2C(=O)O` [AmB, Amphotericin B], the “SI selectivity index (EC50 THP-1/EC50 parasite (amastigote form))” value in [1] is listed as 116.0. Broadly, the CC50 is the concentration at which the toxic effect on the cells reaches its halfway point. A word on the EC50: it is the midpoint of the concentration-response curve. Consider `O=C(Nc1ccc(N=c2[nH]c3ccccc3[nH]2)c(Cl)c1)c1ccc(N=c2[nH]c3ccccc3[nH]2)cc1Cl` [Compound 1f, 4-((1H-benzo[d]imidazol-2(3H)-ylidene)amino)-N-(4-((1H-benzo[d]imidazol-2(3H)-ylidene)amino)-3-chlorophenyl)-2-clorobenzamide], for which, in series [2], the CC50 is 10.2 ± 0.3 µM. The concentration for a half-maximal effect (EC50) in series [3] (strain B48 resistant to pentamidine and diminazene) amounted to 2.93 ± 0.17 µM; in series [4] (strain s427 of T. b. brucei), 2.64 ± 0.09 µM. Moreover, in series [3], the “RF resistance factor (EC50 T. b. B48/EC50 T. b. s427)” value is “(1.11)”. For the same compound, the SI in series [4] (HEK vs T. brucei) worked out at 3.9. As for `c1ccc2[nH]c(=Nc3ccc(CCc4ccc(N=c5[nH]c6ccccc6[nH]5)cc4)cc3)[nH]c2c1` [Compound 13, 4,4′-(ethane-1,2-diyl)bis(N-(1H-benzo[d]imidazol-2(3H)-ylidene)aniline)], in [1] (Leishmania donovani, Macrophage, read-out: EC50 L. donovani intracellular amastigotes), the EC50 was above 10 µM. With `N=C(Nc1ccc(CCc2ccc(NC(=N)c3ccccn3)cc2)cc1)c1ccccn1` [Compound 17, N,N″-(ethane-1,2-diylbis(4,1-phenylene))dipicolinimidamide], the EC50 at 72 h in [5] is above 200 µM. Also, in series [6], the EC50 is above 50 µM.

For `CCCCCCCCCCCCCCCCOP(=O)([O-])OCC[N+](C)(C)C` [MIL, Miltefosine], the “SI selectivity index (EC50 THP-1/EC50 parasite (amastigote form))” value in [1] was 28.8. Take `O=C(Cn1ccnc1[N+](=O)[O-])NCc1ccccc1` [benzn, benznidazole]: the concentration for a half-maximal effect (EC50) at 72 h in [5] is above 200 µM. It took 25.3 ± 2.1 µM to reach a half-maximal effect in series [7] (EC50). Turning to `O=C(O)Cc1ccccc1Nc1c(Cl)cccc1Cl` [diclofenac], the “metabolism by mouse liver microsomes (CD-1), in words” value in [8] was “slowly metabolised”. Besides, in [9], the “metabolism by human liver microsomes, in words” value is given as “rapidly metabolised (high intrinsic clearance)”. In the case of `N=C(N)c1ccc(/N=N/Nc2ccc(C(=N)N)cc2)cc1` [dimin., Diminazene], the “RF resistance factor (EC50 T. b. B48/EC50 T. b. s427)” value in series [3] is “(13.1)”. On the same count and under the same terms, next, `N=C(N)c1ccc(OCCCCCOc2ccc(C(=N)N)cc2)cc1` [pent., Pentamidine]: “(168)”.
